Activity calls are given as the source filed them.
What was measured:
[1] = biological target: T1, Mannose-6-phosphate isomerase (Homo sapiens, UniProt P34949); test: human PMI inhibitors, high substrate, primary screen, biochemical, fluorescence intensity, high mannose 6-phosphate (AID 1220)
T1 sequence (P34949 whole entry): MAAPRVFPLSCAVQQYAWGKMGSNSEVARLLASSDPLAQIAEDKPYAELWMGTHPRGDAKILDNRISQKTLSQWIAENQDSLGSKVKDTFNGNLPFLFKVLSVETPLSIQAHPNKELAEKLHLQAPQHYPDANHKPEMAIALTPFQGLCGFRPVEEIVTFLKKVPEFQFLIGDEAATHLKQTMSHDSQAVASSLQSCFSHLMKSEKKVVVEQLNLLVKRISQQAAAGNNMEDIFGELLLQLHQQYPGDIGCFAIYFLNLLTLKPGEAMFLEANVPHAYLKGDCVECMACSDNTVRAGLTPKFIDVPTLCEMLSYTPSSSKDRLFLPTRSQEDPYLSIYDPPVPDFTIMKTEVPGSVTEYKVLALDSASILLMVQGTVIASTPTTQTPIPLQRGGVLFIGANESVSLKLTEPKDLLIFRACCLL

Caspase-6 = biological target: T2, Caspase-6 (Homo sapiens, UniProt P55212); test: human caspase-6 inhibitors, dose response, biochemical, VEID-R110 fluorescence, cherry-pick (AID 720632)
T2 sequence (P55212 whole entry): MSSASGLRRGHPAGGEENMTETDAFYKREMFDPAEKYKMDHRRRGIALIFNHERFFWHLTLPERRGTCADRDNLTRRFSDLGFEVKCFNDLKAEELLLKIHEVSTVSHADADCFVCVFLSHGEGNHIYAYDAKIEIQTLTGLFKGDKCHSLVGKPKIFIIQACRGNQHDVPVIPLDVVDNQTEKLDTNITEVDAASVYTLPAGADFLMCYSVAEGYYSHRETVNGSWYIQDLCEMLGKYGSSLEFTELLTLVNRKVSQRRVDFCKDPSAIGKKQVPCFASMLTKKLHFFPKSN

[2] = inhibitors of firefly luciferase expression or activity, dose response, H4 neuroglioma cells, luminescence (AID 1990); format: functional, cell-based
SUMO-activating enzyme = SUMO-activating enzyme (Homo sapiens, UniProt Q9UBT2); test: SUMOylation inhibitor hit validation, confirmation, SUMOylation inhibitor project, biochemical, AlphaScreen (AID 2018); format: functional
A-375 = test: MITF: Counter assay: A375 proliferation Measured in Cell-Based System Using Plate Reader - 2084-03_Inhibitor_Dose_DryPowder_Activity. [Related pubchem assays (depositor defined):AID488944]; format: functional; settings: Homo sapiens
[3] = biological target: Dual specificity mitogen-activated protein kinase kinase 1 (Homo sapiens, UniProt Q02750); test: Navigating the Kinome. Panel member name: MAP2K1; format: functional
[4] = biological target: cGMP-dependent protein kinase 1 (Homo sapiens, UniProt Q13976); format: functional;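 also: value from a kinome panel screen with PRKG1 as the panel member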
[5] = biological target: 5'-AMP-activated protein kinase catalytic subunit alpha-1 (Homo sapiens, UniProt Q13131); format: functional
[6] = biological target: Protein kinase C delta type (Homo sapiens, UniProt Q05655); format: functional
[7] = biological target: Serine/threonine-protein kinase D2 (Homo sapiens, UniProt Q9BZL6); format: functional;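 also: measured against PRKD2 as one member of a kinome-wide kinase profiling panel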
[8] = biological target: Calcium/calmodulin-dependent protein kinase type II subunit gamma (Homo sapiens, UniProt Q13555); format: functional
[9] = biological target: Tyrosine-protein kinase SYK (Homo sapiens, UniProt P43405); format: functional
[10] = biological target: Tyrosine-protein kinase receptor TYRO3 (Homo sapiens, UniProt Q06418); format: functional;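 also: TYRO3 value obtained as one member of a kinome-wide profiling panel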
[11] = biological target: Serine/threonine-protein kinase 17A (Homo sapiens, UniProt Q9UEE5); format: functional
[12] = biological target: Tyrosine-protein kinase BTK (Homo sapiens, UniProt Q06187); format: functional
[13] = biological target: Calcium/calmodulin-dependent protein kinase type II subunit delta (Homo sapiens, UniProt Q13557); format: functional
[14] = biological target: Fibroblast growth factor receptor 1 (Homo sapiens, UniProt P11362); format: functional
[15] = biological target: Proto-oncogene tyrosine-protein kinase ROS (Homo sapiens, UniProt P08922); format: functional;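 also: ROS1 tested as one member of a kinome-wide kinase panel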
[16] = biological target: Testis-specific serine/threonine-protein kinase 1 (Homo sapiens, UniProt Q9BXA7); format: functional
Insulin receptor = Insulin receptor (Homo sapiens, UniProt P06213); format: functional;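 also: insulin receptor kinase tested as one member of a kinome-wide kinase panel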
[17] = biological target: Protein kinase C gamma type (Homo sapiens, UniProt P05129); format: functional
[18] = biological target: Dual specificity tyrosine-phosphorylation-regulated kinase 3 (Homo sapiens, UniProt O43781); format: functional;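 also: measured as one member of a broad kinase panel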
[19] = biological target: Receptor tyrosine-protein kinase erbB-2 (Homo sapiens, UniProt P04626); test: Navigating the Kinome. Panel member name: ERBB2; format: functional
[20] = biological target: Serine/threonine-protein kinase Chk1 (Homo sapiens, UniProt O14757); format: functional;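 also: measured as one member of a kinome-wide kinase profiling panel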
[21] = biological target: Insulin-like growth factor 1 receptor (Homo sapiens, UniProt P08069); test: Navigating the Kinome. Panel member name: IGF1R; format: functional
Misshapen-like kinase 1 = Misshapen-like kinase 1 (Homo sapiens, UniProt Q8N4C8); format: functional;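 also: kinome panel screen with MINK as the panel member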
[22] = biological target: cAMP-dependent protein kinase catalytic subunit PRKX (Homo sapiens, UniProt P51817); format: functional
[23] = biological target: RAC-alpha serine/threonine-protein kinase (Homo sapiens, UniProt P31749); format: functional;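 also: AKT1 affinity measured as one member of a kinome-wide kinase profiling panel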
[24] = biological target: Rho-associated protein kinase 1 (Homo sapiens, UniProt Q13464); format: functional;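 also: measured within a broad kinome-wide panel profiling many kinases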
[25] = biological target: Fibroblast growth factor receptor 3 (Homo sapiens, UniProt P22607); format: functional
[26] = biological target: Glycogen synthase kinase-3 beta (Homo sapiens, UniProt P49841); format: functional;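 also: value comes from a broad kinome profiling panel, with GSK3B as the panel member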
[27] = biological target: Cyclin-dependent kinase 9 (Homo sapiens, UniProt P50750); format: functional;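 also: value from the CDK9 entry of a kinome-spanning kinase panel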
[28] = biological target: Receptor tyrosine-protein kinase erbB-4 (Homo sapiens, UniProt Q15303); format: functional;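 also: ERBB4 member of a kinome-wide kinase profiling panel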
[29] = biological target: Dual specificity tyrosine-phosphorylation-regulated kinase 1A (Homo sapiens, UniProt Q13627); format: functional;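 also: measured against DYRK1A as one member of a broad kinome profiling panel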
[30] = biological target: Calcium/calmodulin-dependent protein kinase type II subunit alpha (Homo sapiens, UniProt Q9UQM7); test: Navigating the Kinome. Panel member name: CAMK2A; format: functional

Chain of Insulin receptor (P06213 28-758 limits assumed): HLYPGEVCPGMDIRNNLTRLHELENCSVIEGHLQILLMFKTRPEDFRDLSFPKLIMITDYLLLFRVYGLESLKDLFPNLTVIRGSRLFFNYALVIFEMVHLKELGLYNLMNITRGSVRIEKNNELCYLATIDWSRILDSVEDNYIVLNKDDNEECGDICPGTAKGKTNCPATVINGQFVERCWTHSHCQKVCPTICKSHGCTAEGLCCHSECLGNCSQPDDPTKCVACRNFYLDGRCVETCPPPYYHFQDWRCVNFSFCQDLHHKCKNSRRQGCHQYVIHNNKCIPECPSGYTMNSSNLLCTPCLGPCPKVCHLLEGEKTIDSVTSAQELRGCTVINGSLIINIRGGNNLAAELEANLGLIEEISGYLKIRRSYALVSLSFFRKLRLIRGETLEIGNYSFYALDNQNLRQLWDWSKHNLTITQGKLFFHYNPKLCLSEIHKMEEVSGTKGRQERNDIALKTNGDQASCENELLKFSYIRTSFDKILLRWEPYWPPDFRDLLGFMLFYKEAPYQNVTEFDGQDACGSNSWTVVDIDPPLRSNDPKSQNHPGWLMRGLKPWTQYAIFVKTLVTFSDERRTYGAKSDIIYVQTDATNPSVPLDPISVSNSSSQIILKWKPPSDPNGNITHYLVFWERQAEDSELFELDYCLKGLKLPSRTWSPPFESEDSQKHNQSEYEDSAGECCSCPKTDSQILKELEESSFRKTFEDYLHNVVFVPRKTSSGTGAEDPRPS
Chain of Insulin receptor (P06213 763-1382 limits assumed): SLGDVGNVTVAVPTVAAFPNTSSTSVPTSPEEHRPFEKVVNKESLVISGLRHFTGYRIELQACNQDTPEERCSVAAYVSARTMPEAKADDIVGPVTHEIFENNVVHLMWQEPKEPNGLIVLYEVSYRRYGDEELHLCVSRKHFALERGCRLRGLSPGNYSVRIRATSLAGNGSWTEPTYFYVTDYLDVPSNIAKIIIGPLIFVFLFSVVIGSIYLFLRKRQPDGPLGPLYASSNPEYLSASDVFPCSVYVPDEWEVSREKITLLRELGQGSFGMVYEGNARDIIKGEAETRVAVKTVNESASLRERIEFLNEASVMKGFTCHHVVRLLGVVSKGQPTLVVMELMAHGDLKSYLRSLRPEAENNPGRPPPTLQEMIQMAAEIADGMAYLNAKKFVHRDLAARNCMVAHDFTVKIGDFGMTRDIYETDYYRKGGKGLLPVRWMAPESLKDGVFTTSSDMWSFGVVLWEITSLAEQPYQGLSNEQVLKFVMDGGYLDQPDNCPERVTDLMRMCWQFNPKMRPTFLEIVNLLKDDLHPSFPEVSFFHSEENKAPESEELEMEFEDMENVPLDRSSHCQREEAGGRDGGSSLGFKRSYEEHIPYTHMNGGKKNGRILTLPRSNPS
Chain of SUMO-activating enzyme (Q9UBE0 whole entry): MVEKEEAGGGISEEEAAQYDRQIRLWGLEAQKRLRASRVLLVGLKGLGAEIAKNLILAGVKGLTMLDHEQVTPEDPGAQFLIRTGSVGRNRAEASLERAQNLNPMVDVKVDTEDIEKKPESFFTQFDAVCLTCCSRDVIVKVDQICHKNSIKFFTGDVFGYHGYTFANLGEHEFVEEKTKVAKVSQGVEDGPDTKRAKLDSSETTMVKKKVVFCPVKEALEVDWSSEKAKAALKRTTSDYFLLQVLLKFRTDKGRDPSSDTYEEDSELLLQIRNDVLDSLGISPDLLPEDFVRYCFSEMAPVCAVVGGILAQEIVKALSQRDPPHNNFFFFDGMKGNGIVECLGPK
Chain of SUMO-activating enzyme (Q9UBT2 whole entry): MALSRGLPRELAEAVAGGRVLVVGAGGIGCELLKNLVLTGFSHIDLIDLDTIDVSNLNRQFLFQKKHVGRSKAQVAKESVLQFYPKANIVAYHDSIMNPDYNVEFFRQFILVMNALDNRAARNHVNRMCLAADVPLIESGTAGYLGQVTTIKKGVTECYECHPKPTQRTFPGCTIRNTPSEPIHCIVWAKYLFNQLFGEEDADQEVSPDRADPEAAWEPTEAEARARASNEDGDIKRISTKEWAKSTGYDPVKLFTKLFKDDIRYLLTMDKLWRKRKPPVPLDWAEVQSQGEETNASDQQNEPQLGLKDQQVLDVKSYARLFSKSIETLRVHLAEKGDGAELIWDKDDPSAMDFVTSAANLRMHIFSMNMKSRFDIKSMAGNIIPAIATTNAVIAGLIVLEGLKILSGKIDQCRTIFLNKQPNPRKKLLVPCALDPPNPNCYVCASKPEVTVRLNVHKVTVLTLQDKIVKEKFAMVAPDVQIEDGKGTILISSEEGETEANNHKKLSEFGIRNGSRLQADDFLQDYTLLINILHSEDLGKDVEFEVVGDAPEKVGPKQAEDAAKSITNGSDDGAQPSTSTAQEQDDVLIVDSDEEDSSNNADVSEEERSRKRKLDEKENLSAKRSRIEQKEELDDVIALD
Chain of Insulin-like growth factor 1 receptor (P08069 31-736 limits assumed): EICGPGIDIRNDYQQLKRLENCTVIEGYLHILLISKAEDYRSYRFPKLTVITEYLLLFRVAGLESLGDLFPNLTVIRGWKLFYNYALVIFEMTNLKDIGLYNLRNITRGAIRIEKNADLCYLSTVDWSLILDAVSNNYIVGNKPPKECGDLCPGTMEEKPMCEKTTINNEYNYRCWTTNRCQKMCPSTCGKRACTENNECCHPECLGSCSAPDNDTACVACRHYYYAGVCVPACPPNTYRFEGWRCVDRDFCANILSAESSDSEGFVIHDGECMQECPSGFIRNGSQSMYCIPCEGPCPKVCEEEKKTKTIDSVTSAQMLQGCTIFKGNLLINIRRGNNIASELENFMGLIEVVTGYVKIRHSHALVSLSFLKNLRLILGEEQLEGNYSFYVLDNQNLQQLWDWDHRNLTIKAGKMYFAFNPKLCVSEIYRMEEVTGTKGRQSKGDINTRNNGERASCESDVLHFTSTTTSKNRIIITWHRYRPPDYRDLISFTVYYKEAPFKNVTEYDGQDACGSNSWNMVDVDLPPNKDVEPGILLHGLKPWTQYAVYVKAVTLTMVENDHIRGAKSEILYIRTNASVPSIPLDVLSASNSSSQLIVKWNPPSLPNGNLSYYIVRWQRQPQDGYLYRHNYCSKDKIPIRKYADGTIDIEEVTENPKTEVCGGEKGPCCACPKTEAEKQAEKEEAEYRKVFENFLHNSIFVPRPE
Chain of Insulin-like growth factor 1 receptor (P08069 741-1367 limits assumed): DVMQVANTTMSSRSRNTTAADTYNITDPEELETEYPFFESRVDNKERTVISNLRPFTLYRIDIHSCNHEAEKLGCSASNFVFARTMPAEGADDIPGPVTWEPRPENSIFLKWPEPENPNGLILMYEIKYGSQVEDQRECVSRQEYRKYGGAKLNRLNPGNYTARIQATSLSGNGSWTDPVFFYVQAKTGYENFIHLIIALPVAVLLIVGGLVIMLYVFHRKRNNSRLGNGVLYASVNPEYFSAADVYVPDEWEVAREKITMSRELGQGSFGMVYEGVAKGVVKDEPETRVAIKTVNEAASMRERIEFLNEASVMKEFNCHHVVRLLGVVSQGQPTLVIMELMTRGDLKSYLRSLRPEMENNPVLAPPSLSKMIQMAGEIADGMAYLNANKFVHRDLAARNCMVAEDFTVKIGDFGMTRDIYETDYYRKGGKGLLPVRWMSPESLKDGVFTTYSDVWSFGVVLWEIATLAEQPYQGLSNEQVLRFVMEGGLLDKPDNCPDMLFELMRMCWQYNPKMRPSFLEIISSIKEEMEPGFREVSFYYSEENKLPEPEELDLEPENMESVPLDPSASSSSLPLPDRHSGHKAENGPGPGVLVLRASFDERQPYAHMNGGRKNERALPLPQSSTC
Chain of Serine/threonine-protein kinase D2 (Q9BZL6 whole entry): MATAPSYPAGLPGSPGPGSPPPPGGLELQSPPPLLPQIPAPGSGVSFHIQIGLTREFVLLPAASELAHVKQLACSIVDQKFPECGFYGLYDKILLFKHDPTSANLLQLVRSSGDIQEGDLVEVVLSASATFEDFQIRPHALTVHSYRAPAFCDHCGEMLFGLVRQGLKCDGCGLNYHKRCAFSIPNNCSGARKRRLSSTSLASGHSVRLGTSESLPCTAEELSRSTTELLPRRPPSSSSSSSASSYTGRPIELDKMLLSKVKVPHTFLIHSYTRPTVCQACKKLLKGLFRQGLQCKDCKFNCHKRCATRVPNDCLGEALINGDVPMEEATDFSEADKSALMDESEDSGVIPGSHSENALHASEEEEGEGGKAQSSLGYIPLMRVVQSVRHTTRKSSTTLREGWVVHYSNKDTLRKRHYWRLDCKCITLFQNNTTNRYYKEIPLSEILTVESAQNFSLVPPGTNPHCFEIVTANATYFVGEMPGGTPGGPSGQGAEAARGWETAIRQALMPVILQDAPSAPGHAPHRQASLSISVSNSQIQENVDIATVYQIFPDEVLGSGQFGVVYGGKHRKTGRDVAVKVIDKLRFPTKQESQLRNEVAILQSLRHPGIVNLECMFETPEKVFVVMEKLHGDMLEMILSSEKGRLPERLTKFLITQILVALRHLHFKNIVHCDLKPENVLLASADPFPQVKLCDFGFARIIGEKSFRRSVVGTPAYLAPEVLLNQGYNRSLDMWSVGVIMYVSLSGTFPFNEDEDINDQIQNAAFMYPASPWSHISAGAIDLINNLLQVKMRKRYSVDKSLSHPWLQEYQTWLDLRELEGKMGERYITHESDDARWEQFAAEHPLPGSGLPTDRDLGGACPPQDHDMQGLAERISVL
Chain of Dual specificity mitogen-activated protein kinase kinase 1 (Q02750 whole entry): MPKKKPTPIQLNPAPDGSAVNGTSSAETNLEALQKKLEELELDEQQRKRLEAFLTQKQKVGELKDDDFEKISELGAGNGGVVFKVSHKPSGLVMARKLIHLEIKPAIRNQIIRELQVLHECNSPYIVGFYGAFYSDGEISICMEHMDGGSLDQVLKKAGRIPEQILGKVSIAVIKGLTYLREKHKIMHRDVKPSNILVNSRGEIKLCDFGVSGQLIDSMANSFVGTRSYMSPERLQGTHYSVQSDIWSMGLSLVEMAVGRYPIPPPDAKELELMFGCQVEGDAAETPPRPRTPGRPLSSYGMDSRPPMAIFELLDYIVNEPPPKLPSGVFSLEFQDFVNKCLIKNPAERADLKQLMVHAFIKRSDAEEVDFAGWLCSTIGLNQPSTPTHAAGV

CC(C)N(C(=O)Nc1ccc2nsnc2c1)C(C)C
IC50 [1]: > 50000 nM (not active) | AC50 (Caspase-6): 5600 nM (active)

NS(=O)(=O)c1ccc(NC2=CC(=O)C(=O)c3ccccc32)cc1
EC50 [2]: > 120000 nM (not active) | IC50 (SUMO-activating enzyme): 2110 nM (active)

CCC(=O)NC(c1ccccc1OC)c1ccc2cccnc2c1O (stereo not given)
AC50 (A-375): 35000 nM (active)

Clc1cc(-c2c[nH]c3ncccc23)nc(NC2CCCCC2)n1
Ki [3]: 200 nM (active) | Ki [4]: 794 nM (active) | Ki [5]: > 2000 nM (inactive) | Ki [6]: > 7940 nM (inactive) | Ki [7]: 200 nM (active) | Ki [8]: 501 nM (active) | Ki [9]: > 1580 nM (inactive) | Ki [10]: > 2510 nM (inactive) | Ki [11]: 1000 nM (active) | Ki [12]: > 3980 nM (inactive) | Ki [13]: > 1260 nM (inactive) | Ki [14]: > 3980 nM (inactive) | Ki [15]: > 2000 nM (inactive) | Ki [16]: > 1580 nM (inactive) | Ki (Insulin receptor): 3160 nM (active) | Ki [17]: 1000 nM (active) | Ki [18]: 7.94 nM (active) | Ki [19]: > 1580 nM (inactive) | Ki [20]: 3980 nM (active) | Ki [21]: > 2000 nM (inactive) | Ki (Misshapen-like kinase 1): 7.94 nM (active) | Ki [22]: > 1260 nM (inactive) | Ki [23]: > 7940 nM (inactive) | Ki [24]: 15.8 nM (active) | Ki [25]: > 2000 nM (inactive) | Ki [26]: > 1000 nM (inactive) | Ki [27]: > 794 nM (inactive) | Ki [28]: > 3980 nM (inactive) | Ki [29]: 20 nM (active) | Ki [30]: 3160 nM (active)

Reference: ChEMBL document CHEMBL1201862, “PubChem BioAssay data set” (2004)
